{
  "source": "paper PMC7827382",
  "about": "“Sterols and Triterpenes from Dobera glabra Growing in Saudi Arabia and Their Cytotoxic Activity” (Plants, 2021)",
  "key": {"[1]": {"tested_on": "HCT-116, PC-3, and HepG-2", "assay": "Antitumor activity against cancer cell lines, summary in words", "assay_type": "cell-based, human", "settings": "HCT-116, PC-3 and HepG-2 cell lines"}, "[2]": {"tested_on": "colorectal cancer cell (HCT-116)", "assay": "Cytotoxic activity, MTT assay, HCT-116", "assay_type": "cell-based, human", "settings": "for IC50: Homo sapiens, HCT-116, 48 h, read-out: HCT-116 IC50"}, "[3]": {"tested_on": "hepatocellular carcinoma cells (HepG-2)", "assay": "Cytotoxic activity, MTT assay, HepG-2", "assay_type": "cell-based, human", "settings": "for IC50: Homo sapiens, HepG2, 48 h, read-out: HepG-2 IC50"}, "[4]": {"tested_on": "African green monkey kidney cell line (Vero-B)", "assay": "Cytotoxic activity, MTT assay, normal Vero-B cells", "assay_type": "cell-based", "settings": "for IC50: Chlorocebus sabaeus, Vero B, read-out: VERO-B IC50"}, "[5]": {"tested_on": "prostate carcinoma cells (PC-3)", "assay": "Cytotoxic activity, MTT assay, PC-3", "assay_type": "cell-based, human", "settings": "for IC50: Homo sapiens, 48 h, read-out: PC-3 IC50"}, "Vero cell line": {"tested_on": "Vero cell line", "assay": "Wound-healing assay", "assay_type": "cell-based, African green monkey", "settings": "35 or 70 µM; up to 48 h"}, "phosphodiesterase I": {"biological_target": "phosphodiesterase I (Crotalus adamanteus, UniProt J3SEZ3)", "sequence (J3SEZ3 24-851 limits assumed)": "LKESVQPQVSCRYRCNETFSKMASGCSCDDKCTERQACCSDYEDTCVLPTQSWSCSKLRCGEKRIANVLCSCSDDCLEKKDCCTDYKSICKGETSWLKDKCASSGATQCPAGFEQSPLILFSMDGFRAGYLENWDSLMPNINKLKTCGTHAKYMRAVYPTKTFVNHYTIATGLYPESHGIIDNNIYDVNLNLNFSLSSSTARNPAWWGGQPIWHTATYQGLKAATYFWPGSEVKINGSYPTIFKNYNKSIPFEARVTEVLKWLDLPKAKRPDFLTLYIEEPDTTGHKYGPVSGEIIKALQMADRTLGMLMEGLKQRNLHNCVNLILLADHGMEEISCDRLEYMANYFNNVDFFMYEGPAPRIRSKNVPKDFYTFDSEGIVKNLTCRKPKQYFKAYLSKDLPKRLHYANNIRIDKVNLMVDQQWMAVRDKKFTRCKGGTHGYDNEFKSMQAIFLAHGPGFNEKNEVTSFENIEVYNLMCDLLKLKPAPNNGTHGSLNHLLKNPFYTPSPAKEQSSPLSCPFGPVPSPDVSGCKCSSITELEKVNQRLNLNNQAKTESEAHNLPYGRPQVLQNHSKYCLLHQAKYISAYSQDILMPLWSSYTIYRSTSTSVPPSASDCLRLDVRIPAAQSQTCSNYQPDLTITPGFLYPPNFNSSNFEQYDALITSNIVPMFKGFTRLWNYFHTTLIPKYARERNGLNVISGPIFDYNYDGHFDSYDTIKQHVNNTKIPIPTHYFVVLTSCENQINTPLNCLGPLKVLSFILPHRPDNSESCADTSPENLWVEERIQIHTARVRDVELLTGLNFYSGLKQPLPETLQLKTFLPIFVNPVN", "assay": "biochemical", "design": "species or system snake"}, "[6]": {"settings": "MTT, 48 h incubation, ± SD of three experiments"}, "[7]": {"settings": "normal cells, MTT, 48 h incubation, ± SD of three experiments"}},
  "note": "“Also recorded” adds a separate entry of the source. Like-named read-outs stand apart in the source and are kept apart here.",
  "data": [
    {"molecule": "CC[C@H](CC[C@@H](C)C1CCC2C3C(=O)C=C4C[C@@H](O)CC[C@]4(C)C3CC[C@@]21C)C(C)C", "note": "(stereo partly drawn) [Compound 13, 7-keto-β-sitosterol]", "values": [
      {"measurement": "antitumor activity (in words)", "setting": "[1]", "value": "moderate activity"},
      {"measurement": "IC50", "setting": "[2]; [6]", "value": "22.3 ± 0.24", "unit": "µg/mL"},
      {"measurement": "IC50", "setting": "[3]; [6]", "value": "22.3 ± 0.24", "unit": "µg/mL"},
      {"measurement": "IC50", "setting": "[4]; [7]", "value": "64 ± 1.1", "unit": "µg/mL"},
      {"measurement": "IC50", "setting": "[5]; [6]", "value": "22.3 ± 0.24", "unit": "µg/mL"}
    ]},
    {"molecule": "CC[C@H](CC[C@@H](C)C1CCC2C3C(O)C=C4C[C@@H](O)CC[C@]4(C)C3CC[C@@]21C)C(C)C", "note": "(stereo partly drawn) [Compound 11, 7α-hydroxy-β-sitosterol]", "values": [
      {"measurement": "wound healing of normal cells", "setting": "Vero cell line", "value": "able to heal the wound at a rate closer to that observed for untreated cells; also recorded: wound size decreased"},
      {"measurement": "antitumor activity (in words)", "setting": "[1]", "value": "broad-spectrum activity"},
      {"measurement": "IC50", "setting": "[2]; [6]", "value": "~8", "unit": "µg/mL"},
      {"measurement": "IC50", "setting": "[3]; [6]", "value": "~8", "unit": "µg/mL"},
      {"measurement": "inhibition at 2 µM", "setting": "phosphodiesterase I; read-out: phosphodiesterase I enzyme inhibition", "value": 80.2, "unit": "%"},
      {"measurement": "IC50", "setting": "[4]; [7]", "value": "70 ± 0.5", "unit": "µg/mL"},
      {"measurement": "IC50", "setting": "[5]; [6]", "value": "~8", "unit": "µg/mL"}
    ]},
    {"molecule": "C=C(CO)[C@@H]1CC[C@]2(C)CC[C@]3(C)[C@H](CC[C@@H]4[C@@]5(C)CCC(OC(=O)/C=C/c6ccc(O)c(O)c6)C(C)(C)[C@@H]5CC[C@]43C)[C@@H]12", "note": "(stereo partly drawn) [Compound 6, 30-hydroxy lup-20(29)-ene 3β-caffeate]", "values": [
      {"measurement": "IC50", "setting": "[2]; [6]", "value": "68 ± 1.72", "unit": "µg/mL"},
      {"measurement": "IC50", "setting": "[3]; [6]", "value": "68 ± 1.72", "unit": "µg/mL"},
      {"measurement": "IC50", "setting": "[4]; [7]", "value": "68 ± 0.3", "unit": "µg/mL"},
      {"measurement": "IC50", "setting": "[5]; [6]", "value": "68 ± 1.72", "unit": "µg/mL"}
    ]},
    {"molecule": "C=C(CO)[C@@H]1CC[C@]2(C)CC[C@]3(C)[C@H](CC[C@@H]4[C@@]5(C)CC[C@H](O)C(C)(C)[C@@H]5CC[C@]43C)[C@@H]12", "note": "[Compound 4, lup-20(29)-ene-3β,30-diol]", "values": [
      {"measurement": "IC50", "setting": "[2]; [6]", "value": "> 100", "unit": "µg/mL"},
      {"measurement": "IC50", "setting": "[3]; [6]", "value": "> 100", "unit": "µg/mL"},
      {"measurement": "IC50", "setting": "[4]; [7]", "value": "> 100", "unit": "µg/mL"},
      {"measurement": "IC50", "setting": "[5]; [6]", "value": "> 100", "unit": "µg/mL"}
    ]},
    {"molecule": "C=C(C)[C@@H]1CC[C@]2(C)CC[C@]3(C)[C@@H](CC[C@@H]4[C@@]5(C)C=CC(=O)C(C)(C)[C@@H]5CC[C@]43C)[C@@H]12", "note": "[Compound 3, ∆^1-lupenone]", "values": [
      {"measurement": "IC50", "setting": "[2]; [6]", "value": "> 100", "unit": "µg/mL"},
      {"measurement": "IC50", "setting": "[3]; [6]", "value": "> 100", "unit": "µg/mL"},
      {"measurement": "IC50", "setting": "[4]; [7]", "value": "> 100", "unit": "µg/mL"},
      {"measurement": "IC50", "setting": "[5]; [6]", "value": "> 100", "unit": "µg/mL"}
    ]},
    {"molecule": "CC[C@H](CC[C@@H](C)[C@H]1CC[C@H]2[C@@H]3CC=C4C[C@@H](O)CC[C@]4(C)[C@H]3CC[C@]12C)C(C)C", "note": "[Compound 9, β-sitosterol]", "values": [
      {"measurement": "antitumor activity (in words)", "setting": "[1]", "value": "no activity"},
      {"measurement": "IC50", "setting": "[2]", "value": "> 100", "unit": "µg/mL"},
      {"measurement": "IC50", "setting": "[3]", "value": "> 100", "unit": "µg/mL"},
      {"measurement": "IC50", "setting": "[4]; 48 h", "value": "> 100", "unit": "µg/mL"},
      {"measurement": "IC50", "setting": "[5]", "value": "> 100", "unit": "µg/mL"}
    ]},
    {"molecule": "N.N.[Cl][Pt][Cl]", "note": "[Cisplatin, cis-diamineplatinum (II) dichloride, reference compound]", "values": [
      {"measurement": "HCT-116 IC50", "setting": "[2]; [6]", "value": "12.6 ± 2", "unit": "µg/mL"},
      {"measurement": "HepG-2 IC50", "setting": "[3]; [6]", "value": "5 ± 1.5", "unit": "µg/mL"},
      {"measurement": "VERO-B IC50", "setting": "[4]; [7]", "value": "11 ± 1.3", "unit": "µg/mL"},
      {"measurement": "PC-3 IC50", "setting": "[5]; [6]", "value": "5 ± 0.45", "unit": "µg/mL"}
    ]},
    {"molecule": "C=C(C)[C@@H]1CC[C@]2(C)CC[C@]3(C)[C@H](CC[C@@H]4[C@@]5(C)CC[C@H](O)C(C)(C)[C@@H]5CC[C@]43C)[C@@H]12", "note": "[Compound 1, lupeol]", "values": [
      {"measurement": "IC50", "setting": "[2]; [6]", "value": "> 100", "unit": "µg/mL"},
      {"measurement": "IC50", "setting": "[3]; [6]", "value": "> 100", "unit": "µg/mL"},
      {"measurement": "IC50", "setting": "[4]; [7]", "value": "> 100", "unit": "µg/mL"},
      {"measurement": "IC50", "setting": "[5]; [6]", "value": "> 100", "unit": "µg/mL"}
    ]},
    {"molecule": "C=C(C)[C@@H]1CC[C@]2(C)CC[C@]3(C)[C@H](CC[C@@H]4[C@@]5(C)CCC(OC(=O)/C=C/c6ccc(O)c(O)c6)C(C)(C)[C@@H]5CC[C@]43C)[C@@H]12", "note": "(some centres unmarked) [Compound 5, lupeol caffeate]", "values": [
      {"measurement": "IC50", "setting": "[2]; [6]", "value": "59 ± 0.45", "unit": "µg/mL"},
      {"measurement": "IC50", "setting": "[3]; [6]", "value": "59 ± 0.45", "unit": "µg/mL"},
      {"measurement": "IC50", "setting": "[4]; [7]", "value": "81 ± 1.1", "unit": "µg/mL"},
      {"measurement": "IC50", "setting": "[5]; [6]", "value": "59 ± 0.45", "unit": "µg/mL"}
    ]},
    {"molecule": "CC(=O)[C@@H]1CC[C@]2(C)CC[C@]3(C)[C@H](CC[C@@H]4[C@@]5(C)CC[C@H](O)C(C)(C)[C@@H]5CC[C@]43C)[C@@H]12", "note": "[Compound 2, 30-norlup-3β-ol-20-one]", "values": [
      {"measurement": "IC50", "setting": "[2]; [6]", "value": "> 100", "unit": "µg/mL"},
      {"measurement": "IC50", "setting": "[3]; [6]", "value": "> 100", "unit": "µg/mL"},
      {"measurement": "IC50", "setting": "[4]; [7]", "value": "> 100", "unit": "µg/mL"},
      {"measurement": "IC50", "setting": "[5]; [6]", "value": "> 100", "unit": "µg/mL"}
    ]},
    {"molecule": "C=C(C=O)C1CCC2(C)CCC3(C)C(CCC4C5(C)CCC(OC(=O)C=Cc6ccc(O)c(O)c6)C(C)(C)C5CCC43C)C12", "note": "(stereo not drawn) [Compound 7, lup-20(29)-ene 3β-caffeate-30-al]", "values": [
      {"measurement": "IC50", "setting": "[2]; [6]", "value": "62 ± 1.42", "unit": "µg/mL"},
      {"measurement": "IC50", "setting": "[3]; [6]", "value": "62 ± 1.42", "unit": "µg/mL"},
      {"measurement": "IC50", "setting": "[4]; [7]", "value": "> 100", "unit": "µg/mL"},
      {"measurement": "IC50", "setting": "[5]; [6]", "value": "62 ± 1.42", "unit": "µg/mL"}
    ]},
    {"molecule": "O=C(O)CN(CCN(CC(=O)O)CC(=O)O)CC(=O)O", "note": "[EDTA, reference compound]", "values": [
      {"measurement": "IC50", "setting": "phosphodiesterase I; positive control, read-out: IC50 ± SD, phosphodiesterase I", "value": "274 ± 0.007", "unit": "µM"}
    ]}
  ]
}
